Experiment [1] has as its target hNET (Homo sapiens (Human), UniProt P23975). Put plainly: NET radioligand binding assay ([3H]nisoxetine, HEK-293 membranes). The following applies: recombinant HEK-293 membranes, [3H]nisoxetine; read-out: Binding Affinity (IC50, nM) NET. The procedure:
(§1) The medium was removed from the flasks and the cells rinsed with HBSS without Ca and without Mg. The cells were then incubated for 5-10 minutes in 10 mM Tris-Cl, pH 7.5, 5 mM EDTA before the cells were lifted with a combination of pipetting and scraping, as needed. The cell suspension was collected into centrifuge bottles and homogenized for 30 seconds with a Polytron homogenizer. The suspension was centrifuged for 30 minutes at 32,000×g, 4° C. The supernatant was decanted and the pellet resuspended and homogenized in 50 mM Tris-Cl, pH 7.5, 1 mM EDTA for 10 seconds. The suspension was then centrifuged again for 30 minutes at 32,000×g, 4° C. The supernatant was decanted and the pellet resuspended in 50 mM Tris-Cl, pH 7.5, 1 mM EDTA and briefly homogenized. A Bradford assay (Bio-rad) was performed and the membrane preparation diluted to 2 mg/ml with 50 mM Tris-Cl, pH 7.5, 1 mM EDTA. Aliquots were prepared, and then frozen and stored at −80° C.
Compounds were dissolved in 100% DMSO at a concentration 100 times the desired highest assay concentration, serially diluted 1:3 in 100% DMSO, and 1.0 μl/well of each solution was dispensed to a Nunc polypropylene, round bottom, 384-well plate. […] 50 μl/well of a 2× membrane preparation (0.4 mg/ml in 50 mM Tris-Cl, pH 7.5, 120 mM NaCl, 5 mM KCl) and 50 μl/well of a 2× radioligand solution (4 nM [^3H]nisoxetine in 50 mM Tris-Cl, pH 7.5, 120 mM NaCl, 5 mM KCl) were added to the well and the reaction incubated for 1 hour at room temperature. The contents of the assay plate were then transferred to a Millipore MultiscreenHTS GF/B filter plate which was pretreated with 0.5% PEI for at least one hour. The plate was vacuum filtered and washed with 7 washes of 100 μl/well 50 mM Tris-Cl, pH 7.5, 120 mM NaCl, 5 mM KCl chilled to 4° C. The filtration and washing were completed in less than 90 seconds. The plates were air-dried overnight, 12 μl/well of MicroScint scintillation fluid added, and the plates counted in a Trilux.
(§2) Each plate was run in triplicate, and the concentration response curve thus generated was fit using the four-parameter dose response equation, Y=Bottom+(Top-Bottom)/(1+10^((Log IC50−X)*HillSlope)) in order to determine the IC50 value for each compound. The radioligand concentration chosen for each assay corresponds to the Kd concentration determined through saturation binding analysis for each assay.

For experiment [2], the target named is hSERT (Homo sapiens (Human), UniProt P31645). Put plainly: SERT radioligand binding assay ([125I]RTI-55, HEK-293 membranes). The following applies: recombinant HEK-293 membranes, [125I]RTI-55; read-out: Binding Affinity (IC50, nM) SERT. The method, then: as §1
Compounds were dissolved in 100% DMSO at a concentration 100 times the desired highest assay concentration, serially diluted 1:3 in 100% DMSO, and 0.4 μl/well of each solution was dispensed to a Nunc polypropylene, round bottom, 384-well plate. […] The contents of the assay plate were then transferred to a Millipore MultiscreenHTS GF/B filter plate which was pretreated with 0.5% PEI for at least one hour. The plate was vacuum filtered and washed with 7 washes of […] 50 mM Tris-Cl, pH 7.5, 120 mM NaCl, 5 mM KCl chilled to 4° C. The filtration and washing were completed in less than 90 seconds. The plates were air-dried overnight, 12 μl/well of MicroScint scintillation fluid added, and the plates counted in a Trilux.
as §2

Experiment [3] deals with hDAT (Homo sapiens (Human), UniProt Q01959). Kind of experiment: DAT radioligand binding assay ([125I]RTI-55, HEK-293 membranes). The conditions noted are these: recombinant HEK-293 membranes, [125I]RTI-55; read-out: Binding Affinity (IC50, nM) DAT. The procedure: as §1, with “Recombinant HEK-293 cells expressing either the hSERT, hDAT, or hNET proteins were harvested from T-175 flasks as follows. The medium” for “The medium”
Compounds were dissolved in 100% DMSO at a concentration 100 times the desired highest assay concentration, serially diluted 1:3 in 100% DMSO, and 0.4 μl/well of each solution was dispensed to a Nunc polypropylene, round bottom, 384-well plate. […] 20 ul/well of a 2× membrane preparation (12.5 μg/ml in 30 mM sodium phosphate buffer, pH 7.9 at 4° C.) and 20 μl/well of a 2× radioligand solution (250 pM [^125I]RTI-55 in 30 mM sodium phosphate buffer, pH 7.9 at 4° C.) were added to the well and the reaction incubated for 1 hour at room temperature. The contents of the assay plate were then transferred to a Millipore MultiscreenHTS GF/B filter plate which was pretreated with 0.5% PEI for at least one hour. The plate was vacuum-filtered and washed with 7 washes of 100 μl/well 50 mM Tris-Cl, pH 7.5, 120 mM NaCl, 5 mM KCl chilled to 4° C. The filtration and washing were completed in less than 90 seconds. The plates were air-dried overnight, 12 μl/well of MicroScint scintillation fluid added, and the plates counted in a Trilux.
as §2

Molecules are shown by their SMILES.

From US9045468B2, “2,5-methano- and 2,5-ethano-tetrahydrobenzazepine derivatives and use thereof to block reuptake of norepinephrine, dopamine, and serotonin” (Albany Molecular Research, Inc., priority 2010, dated 2015) come the findings set out here.

For orientation: IC50 means the midpoint of a concentration-inhibition curve.

Chain of hSERT (P31645 whole entry): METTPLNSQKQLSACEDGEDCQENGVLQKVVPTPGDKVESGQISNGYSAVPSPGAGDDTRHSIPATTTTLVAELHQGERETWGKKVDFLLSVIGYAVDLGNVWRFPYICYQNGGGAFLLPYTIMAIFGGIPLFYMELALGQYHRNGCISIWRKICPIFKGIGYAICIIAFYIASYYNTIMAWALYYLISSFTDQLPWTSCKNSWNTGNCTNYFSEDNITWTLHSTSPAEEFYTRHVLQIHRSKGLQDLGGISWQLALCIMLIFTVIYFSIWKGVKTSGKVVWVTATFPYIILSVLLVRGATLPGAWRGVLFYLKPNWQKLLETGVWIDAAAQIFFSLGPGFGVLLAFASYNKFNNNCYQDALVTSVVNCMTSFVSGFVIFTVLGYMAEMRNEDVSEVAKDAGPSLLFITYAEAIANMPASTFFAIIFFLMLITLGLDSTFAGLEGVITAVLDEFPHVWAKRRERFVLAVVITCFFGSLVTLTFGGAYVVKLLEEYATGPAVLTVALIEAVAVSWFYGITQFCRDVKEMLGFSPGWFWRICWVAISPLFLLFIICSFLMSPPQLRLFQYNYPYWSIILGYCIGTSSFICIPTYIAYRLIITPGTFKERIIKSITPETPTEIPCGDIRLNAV
Chain of hNET (P23975 whole entry): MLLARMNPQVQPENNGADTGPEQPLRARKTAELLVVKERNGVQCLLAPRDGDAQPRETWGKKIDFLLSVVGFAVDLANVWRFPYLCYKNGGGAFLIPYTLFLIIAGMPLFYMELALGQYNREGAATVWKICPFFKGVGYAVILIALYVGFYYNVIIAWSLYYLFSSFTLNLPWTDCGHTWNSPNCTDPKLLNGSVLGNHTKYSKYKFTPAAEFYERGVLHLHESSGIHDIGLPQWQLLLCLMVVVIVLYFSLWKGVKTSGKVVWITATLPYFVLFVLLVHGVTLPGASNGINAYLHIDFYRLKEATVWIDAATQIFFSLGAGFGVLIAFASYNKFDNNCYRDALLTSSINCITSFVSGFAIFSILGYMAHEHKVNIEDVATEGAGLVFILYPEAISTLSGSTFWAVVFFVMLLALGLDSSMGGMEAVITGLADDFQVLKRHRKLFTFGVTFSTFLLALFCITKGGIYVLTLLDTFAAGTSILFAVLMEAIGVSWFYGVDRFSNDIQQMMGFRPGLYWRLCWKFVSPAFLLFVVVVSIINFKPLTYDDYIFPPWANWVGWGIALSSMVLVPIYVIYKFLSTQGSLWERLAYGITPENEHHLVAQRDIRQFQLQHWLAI
Chain of hDAT (Q01959 whole entry): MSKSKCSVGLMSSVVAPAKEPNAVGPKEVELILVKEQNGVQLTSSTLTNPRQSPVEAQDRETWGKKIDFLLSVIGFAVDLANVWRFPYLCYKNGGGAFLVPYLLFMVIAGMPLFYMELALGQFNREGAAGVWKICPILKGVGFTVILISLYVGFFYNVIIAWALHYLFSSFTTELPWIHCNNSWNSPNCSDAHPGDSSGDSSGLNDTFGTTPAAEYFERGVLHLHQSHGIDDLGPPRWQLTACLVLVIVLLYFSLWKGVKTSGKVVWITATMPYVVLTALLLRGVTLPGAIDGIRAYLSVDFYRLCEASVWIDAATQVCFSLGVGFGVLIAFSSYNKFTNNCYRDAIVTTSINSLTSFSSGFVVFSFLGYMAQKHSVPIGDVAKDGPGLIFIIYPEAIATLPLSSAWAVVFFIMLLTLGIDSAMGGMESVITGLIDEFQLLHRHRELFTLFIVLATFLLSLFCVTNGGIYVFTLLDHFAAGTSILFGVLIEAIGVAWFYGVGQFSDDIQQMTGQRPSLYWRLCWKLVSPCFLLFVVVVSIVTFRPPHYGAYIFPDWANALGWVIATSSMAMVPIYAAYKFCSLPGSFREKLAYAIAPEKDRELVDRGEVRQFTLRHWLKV

Consider `Nc1cnc(Oc2ccc3c(c2)CN2CCC3(c3ccc(Cl)cc3)CC2)cn1` [Example 34, 5-(5-(4-chlorophenyl)-2,5-ethano-2,3,4,5-tetrahydro-1H-benzo[c]azepin-8-yloxy)pyrazin-2-amine], for which the IC50 in experiment [1] amounted to 430 nM; in experiment [2], 2.3 nM; in experiment [3] it was 104 nM.

With `Clc1ccc(C23CCN(CC2)Cc2cc(OCCCc4ccncc4)ccc23)cc1` [Example 35, 5-(4-chlorophenyl)-2,5-ethano-8-(3-(pyridin-4-yl)propoxy)-2,3,4,5-tetrahydro-1H-benzo[c]azepine], the IC50 in experiment [1] stood at 54.8 nM; in experiment [2], 4.2 nM; in experiment [3] it was 205 nM.

In the case of `Clc1ccc(C23CCN(CC2)Cc2cc(OCCCc4cccnc4)ccc23)cc1` [Example 36, 5-(4-chlorophenyl)-2,5-ethano-8-(3-(pyridin-3-yl)propoxy)-2,3,4,5-tetrahydro-1H-benzo[c]azepine], the IC50 in experiment [1] is 62.3 nM; in experiment [2], 1.2 nM; in experiment [3], 65.7 nM.

For the compound `Clc1ccc(C23CCN(CC2)Cc2cc(-c4ccc5ncnn5c4)ccc23)cc1Cl` [Example 37, 8-([1,2,4]triazolo[1,5-a]pyridin-6-yl)-5-(3,4-dichlorophenyl)-2,5-ethano-2,3,4,5-tetrahydro-1H-benzo[c]azepine], the IC50 in experiment [1] stood at 119 nM; in experiment [2], 8.6 nM; in experiment [3] it was 18.5 nM.

In the case of `COc1ccc(-c2ccc3c(c2)CN2CCC3(c3ccc(Cl)c(Cl)c3)CC2)nn1` [Example 40, 5-(3,4-dichlorophenyl)-8-(6-methoxypyridazin-3-yl)-2,5-ethano-2,3,4,5-tetrahydro-1H-benzo[c]azepine], the IC50 in experiment [1] was 148 nM; in experiment [2], 9.8 nM; in experiment [3], 5.9 nM.

Regarding `Oc1ccc(-c2ccc3c(c2)CN2CCC3(c3ccc(Cl)c(Cl)c3)CC2)nn1` [Example 41, 6-(5-(3,4-dichlorophenyl)-2,5-ethano-2,3,4,5-tetrahydro-1H-benzo[c]azepin-8-yl)pyridazin-3-ol], the IC50 is 79.2 nM in experiment [1], 5 nM in experiment [2] and 5.1 nM in experiment [3].

In the case of `Cc1cc2ncnn2cc1-c1ccc2c(c1)CN1CCC2(c2ccc(Cl)c(Cl)c2)CC1` [Example 43, 5-(3,4-dichlorophenyl)-2,5-ethano-8-(7-methyl-[1,2,4]triazolo[1,5-a]pyridin-6-yl)-2,3,4,5-tetrahydro-1H-benzo[c]azepine], the IC50 was 373 nM in experiment [1], 18.9 nM in experiment [2] and 43.8 nM in experiment [3].

`Clc1ccc(C23CCN(CC2)Cc2cc(Oc4cnccn4)ccc23)cc1Cl` [Example 44, 5-(3,4-dichlorophenyl)-2,5-ethano-8-(pyrazin-2-yloxy)-2,3,4,5-tetrahydro-1H-benzo[c]azepine]: the values for the IC50 in experiment [1], in experiment [2] and in experiment [3] were 161 nM, 4.7 nM and 33.9 nM, respectively.

With `FC(F)Oc1ccc2c(c1)CN1CCC2(c2ccc(Cl)c(Cl)c2)CC1` [Example 46, 5-(3,4-dichlorophenyl)-2,5-ethano-8-(difluoromethoxy)-2,3,4,5-tetrahydro-1H-benzo[c]azepine], the IC50 amounted to 140 nM in experiment [1], 3 nM in experiment [2] and 55.2 nM in experiment [3].

For `FC(F)(F)c1ccc(Oc2ccc3c(c2)CN2CCC3(c3cccc(Cl)c3)CC2)nn1` [Example 49, 5-(3-chlorophenyl)-2,5-ethano-8-(6-(trifluoromethyl)pyridazin-3-yloxy)-2,3,4,5-tetrahydro-1H-benzo[c]azepine], the IC50 in experiment [1] was determined as 451 nM; in experiment [2], 24.2 nM; in experiment [3] it was 55.9 nM.

As for `FC(F)(F)c1ccc(C23CCN(CC2)Cc2cc(Oc4ccc(C(F)(F)F)nn4)ccc23)cc1` [Example 50, 2,5-ethano-5-(4-(trifluoromethyl)phenyl)-8-(6-(trifluoromethyl)pyridazin-3-yloxy)-2,3,4,5-tetrahydro-1H-benzo[c]azepine], the IC50 in experiment [1] stood at 1050 nM; in experiment [2], 10.9 nM; in experiment [3] it was 614 nM.

Consider `Fc1ccc(C23CCN(CC2)Cc2cc(Oc4ccc(C(F)(F)F)nn4)ccc23)cc1F` [Example 51, 5-(3,4-difluorophenyl)-2,5-ethano-8-(6-(trifluoromethyl)pyridazin-3-yloxy)-2,3,4,5-tetrahydro-1H-benzo[c]azepine], for which the IC50 in experiment [1] amounted to 231 nM; in experiment [2], 20.2 nM; in experiment [3], 63.2 nM.

For `Fc1ccc(C23CCN(CC2)Cc2cc(Oc4ccc(C(F)(F)F)nn4)ccc23)cc1` [Example 52, 5-(4-fluorophenyl)-2,5-ethano-8-(6-(trifluoromethyl)pyridazin-3-yloxy)-2,3,4,5-tetrahydro-1H-benzo[c]azepine], the IC50 in experiment [1] is 206 nM; in experiment [2] it was 8.9 nM; in experiment [3], 42.8 nM.

With `Fc1ccc(C23CCN(CC2)Cc2cc(-c4ccc(C(F)(F)F)nn4)ccc23)cc1Cl` [Example 53, 5-(3-chloro-4-fluorophenyl)-2,5-ethano-8-(6-(trifluoromethyl)pyridazin-3-yl)-2,3,4,5-tetrahydro-1H-benzo[c]azepine], the IC50 in experiment [1] was found to be 345 nM; in experiment [2], 2.1 nM; in experiment [3], 120 nM.

For the compound `Fc1ccc(C23CCN(CC2)Cc2cc(-c4ccc5ncnn5c4)ccc23)cc1Cl` [Example 54, 8-([1,2,4]triazolo[1,5-a]pyridin-6-yl)-5-(3-chloro-4-fluorophenyl)-2,5-ethano-2,3,4,5-tetrahydro-1H-benzo[c]azepine], the values for the IC50 in experiment [1], in experiment [2] and in experiment [3] were 541 nM, 4.4 nM and 78 nM, respectively.
